US8030298B2, “17β-HSD1 and STS inhibitors” (Abbott Products GmbH, priority 2005, dated 2011)

Biological target: T1, recombinant human 17β-hydroxysteroid dehydrogenase type 1 (Homo sapiens, UniProt P14061)
T1 construct: made in house; host or cells: Sf9 insect cells (baculovirus, Bac to Bac Expression System)
T1 sequence (P14061 1-328): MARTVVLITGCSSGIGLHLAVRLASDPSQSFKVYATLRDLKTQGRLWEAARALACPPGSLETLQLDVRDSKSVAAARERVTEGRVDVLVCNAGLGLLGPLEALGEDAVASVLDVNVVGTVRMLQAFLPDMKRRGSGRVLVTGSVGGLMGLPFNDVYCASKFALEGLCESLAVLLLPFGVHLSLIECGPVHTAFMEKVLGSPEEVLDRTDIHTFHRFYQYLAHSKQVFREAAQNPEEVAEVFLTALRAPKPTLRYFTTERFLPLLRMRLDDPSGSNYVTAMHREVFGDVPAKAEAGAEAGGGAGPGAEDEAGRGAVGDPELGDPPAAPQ
Test: Inhibition of recombinant human 17β-hydroxysteroid dehydrogenase type 1 (3H-estrone to estradiol conversion, HPLC)
Format: biochemical
Details: read-out: Inhibition of rec. 17β-HSD1 (% inhibition); for inhibition at 0.1 µM: inhibitor concentration 100 nM; for inhibition at 1 µM: 0.5 h, inhibitor concentration 1 μm
Protocol: 17β-HSD1 purification: Recombinant baculovirus was generated by the “Bac to Bac Expression System” (Invitrogen). Recombinant bacmid was transfected to Sf9 insect cells using “Cellfectin Reagent” (Invitrogen). 60 h later cells were harvested; the microsomal fraction was isolated as described by Puranen et al. (1994). Aliquots were stored frozen until determination of enzymatic activity.
Assay—Inhibition of recombinant human 17β-hydroxysteroid dehydrogenase type 1: Recombinant protein (0.1 μg/ml) was incubated in 20 mM KH2PO4 pH 7.4 with 30 nM 3H-estrone and 1 mM NADPH for 30 min at RT, in the presence of potential inhibitors at concentrations of 1 μM or 0.1 μM. Inhibitor stock solutions were prepared in DMSO. Final concentration of DMSO was adjusted to 1% in all samples. The enzyme reaction was stopped by addition of 10% trichloroacetic acid (final concentration). Samples were centrifuged in a microtiter plate at 4000 rpm for 10 min. Supernatants were applied to reverse phase HPLC on a Waters Symmetry C18 column, equipped with a Waters Sentry Guard column. Isocratic HPLC runs were performed at RT at a flow rate of 1 ml/min of acetonitrile:water 48:52 as running solvent. Radioactivity was monitored in the eluate by a Packard Flow Scintillation Analyzer. Total radioactivity for estrone and estradiol were determined in each sample and percent conversion of estrone to estradiol was calculated according to the following formula:
Percent inhibition was calculated as follows: % inhibition=100−% conversion

With `Cc1cnc(NC(=O)CC[C@@H]2CC(F)(F)[C@@]3(C)CC[C@@H]4c5ccc(O)cc5CC[C@H]4[C@H]23)s1` [Example 93, 3-(17,17-Difluoro-3-hydroxy-estra-1,3,5(10)-trien-15β-yl)-N-(5-methyl-thiazol-2-yl)-propionamide] the inhibition at 0.1 µM was 59.5%.
`C[C@]12CC[C@@H]3c4ccc(O)cc4CC[C@H]3[C@@H]1[C@H](CCCC(=O)N1CCOCC1)c1cn[nH]c12` [Example 162, 3-Hydroxy-15β-(4-morpholin-4-yl-4-oxo-butyl)-estra-1,3,5(10)-trien-[16,17-c]-pyrazole] showed an inhibition at 1 µM of 93% and an inhibition at 0.1 µM of 63%.
For `C[C@]12CC[C@@H]3c4ccc(OS(N)(=O)=O)cc4CC[C@H]3[C@@H]1[C@H](CCCC(=O)N1CCOCC1)CC2=O` [Example 163, 3-Sulphamate-15β-(4-morpholin-4-yl-4-oxo-butyl)-estra-1,3,5(10)-trien-17-one], the inhibition at 1 µM was 43% and the inhibition at 0.1 µM was 10%.
With `C[C@]12CC[C@@H]3c4ccc(OS(=O)(=O)O)cc4CC[C@H]3[C@@H]1[C@H](CCCC(=O)N1CCOCC1)CC2=O` [Example 164, 3-Sulphate-15β-(4-morpholin-4-yl-4-oxo-butyl)-estra-1,3,5(10)-trien-17-one] the inhibition at 1 µM was 27% and the inhibition at 0.1 µM was 3%.
